# Experimental data reported in patent US20250353864A1, “INDAZOLE CONTAINING MACROCYCLES AND THEIR USE” (BLOSSOMHILL THERAPEUTICS, INC., priority 2022, published 2025).
# Tests used:
# Format in all cases: biochemical
# CLK4 = CLK4 (Homo sapiens (Human), UniProt Q9HAZ1); experiment: Inhibition of CLK4 kinase activity evaluated at Nanosyn (ADP-Glo); settings: ADP-Glo luminescence
# Outline: (§1)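 Enzyme + substrate in HEPES pH 7.5/MgCl2/DTT buffer; compound dispensed acoustically, 1% DMSO. ATP start, assay-specific incubation time. ADP-Glo reagent 40 min, detection reagent 10 min, luminescence. %inh vs DMSO (0%) and no-enzyme (100%) controls.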
# CLK1 = CLK1 (Homo sapiens (Human), UniProt P49759); experiment: Inhibition of CLK1 kinase activity evaluated at Nanosyn (ADP-Glo); settings: ADP-Glo luminescence
# Chain of CLK1 (P49759 whole entry): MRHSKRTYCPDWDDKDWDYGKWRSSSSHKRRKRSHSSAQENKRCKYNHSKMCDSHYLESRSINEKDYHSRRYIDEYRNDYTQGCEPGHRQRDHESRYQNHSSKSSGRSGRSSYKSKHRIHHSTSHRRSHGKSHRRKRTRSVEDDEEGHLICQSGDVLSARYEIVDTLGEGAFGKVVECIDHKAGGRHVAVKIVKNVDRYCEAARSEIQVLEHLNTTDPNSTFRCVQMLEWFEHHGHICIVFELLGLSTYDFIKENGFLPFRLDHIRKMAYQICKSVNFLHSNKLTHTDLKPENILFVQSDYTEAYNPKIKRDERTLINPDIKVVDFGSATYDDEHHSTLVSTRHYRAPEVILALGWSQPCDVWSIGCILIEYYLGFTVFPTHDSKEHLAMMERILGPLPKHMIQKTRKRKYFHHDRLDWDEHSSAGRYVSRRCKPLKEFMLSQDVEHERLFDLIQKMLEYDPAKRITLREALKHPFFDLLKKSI
# Outline: as §1
# CLK2 = CLK2 (Homo sapiens (Human), UniProt P49760); experiment: Inhibition of CLK2 kinase activity evaluated at Nanosyn (ADP-Glo); settings: ADP-Glo luminescence
# Chain of CLK2 (P49760 whole entry): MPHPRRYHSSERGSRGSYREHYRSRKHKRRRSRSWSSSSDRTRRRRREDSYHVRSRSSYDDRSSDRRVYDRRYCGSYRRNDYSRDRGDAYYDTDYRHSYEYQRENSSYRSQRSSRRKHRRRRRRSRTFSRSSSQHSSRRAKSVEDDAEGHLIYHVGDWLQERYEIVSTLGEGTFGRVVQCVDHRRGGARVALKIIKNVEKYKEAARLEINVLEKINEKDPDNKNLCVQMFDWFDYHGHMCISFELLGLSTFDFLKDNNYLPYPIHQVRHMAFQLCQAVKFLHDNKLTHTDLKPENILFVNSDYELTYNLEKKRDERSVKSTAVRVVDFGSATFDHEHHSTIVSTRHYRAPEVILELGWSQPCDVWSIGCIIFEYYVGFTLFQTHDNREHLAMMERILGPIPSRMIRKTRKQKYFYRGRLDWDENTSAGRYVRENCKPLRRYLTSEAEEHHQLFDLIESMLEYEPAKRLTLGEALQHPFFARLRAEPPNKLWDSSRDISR
# Outline: as §1
# CLK3 = CLK3 (Homo sapiens (Human), UniProt P49761); experiment: Inhibition of CLK3 kinase activity evaluated at Nanosyn (ADP-Glo); settings: ADP-Glo luminescence
# Chain of CLK3 (P49761 whole entry): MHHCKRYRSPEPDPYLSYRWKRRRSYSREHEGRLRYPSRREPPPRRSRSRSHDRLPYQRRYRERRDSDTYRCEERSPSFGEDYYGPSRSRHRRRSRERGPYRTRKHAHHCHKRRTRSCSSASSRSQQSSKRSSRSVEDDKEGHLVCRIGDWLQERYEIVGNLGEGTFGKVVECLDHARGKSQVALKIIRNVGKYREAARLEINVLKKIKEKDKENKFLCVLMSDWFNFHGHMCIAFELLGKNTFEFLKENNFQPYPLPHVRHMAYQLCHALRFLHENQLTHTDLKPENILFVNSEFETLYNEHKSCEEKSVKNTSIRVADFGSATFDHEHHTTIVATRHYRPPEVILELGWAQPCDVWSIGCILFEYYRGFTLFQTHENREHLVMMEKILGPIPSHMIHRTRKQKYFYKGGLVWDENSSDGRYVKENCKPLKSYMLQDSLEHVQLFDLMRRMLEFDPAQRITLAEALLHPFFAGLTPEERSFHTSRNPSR
# Outline: as §1
# ALK = ALK (Homo sapiens (Human), UniProt Q9UM73); experiment: HotSpot radiometric kinase assay, inhibition of ALK kinase activity; settings: 10 μM ATP
# Experimental: Briefly, specific kinase/substrate pairs along with required cofactors were prepared in reaction buffer; 20 mM Hepes pH 7.5, 10 mM […], 1 mM EGTA, 0.02% Brij35, 0.02 mg/ml BSA, 0.1 mM Na3VO4, 2 mM DTT, 1% DMSO. Compounds were delivered into the reaction, followed […] later by addition of a mixture of ATP (Sigma, St. Louis MO) and ^33P ATP (Perkin Elmer, Waltham MA) to a final concentration of 10 μM. Reactions were carried out at room temperature for 120 min, followed by spotting of the reactions onto P81 ion exchange filter paper (Whatman Inc., Piscataway, NJ). Unbound phosphate was removed by extensive washing of filters in 0.75% phosphoric acid. […] IC50 values and curve fits were obtained using Prism (GraphPad Software).
# EGFR L858R/T790M mutant = EGFR L858R/T790M mutant (Homo sapiens (Human), UniProt P00533, L858R/T790M); experiment: HotSpot radiometric kinase assay, EGFR L858R/T790M mutant; settings: 10 μM ATP
# Outline: (§2)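 Enzyme and substrate pairs were exposed to inhibitor for roughly 20 min before radiolabelled ATP (10 μM final) was introduced; the reaction proceeded 120 min at ambient temperature in pH 7.5 buffer with 1% DMSO, and phosphorylated product was captured on P81 filters for IC50 determination.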
# [1] = target: EGFR Δ746-750/C797S mutant (Homo sapiens (Human), UniProt P00533, C797S/DEL746-750); experiment: HotSpot radiometric kinase assay, EGFR Δ746-750/C797S mutant; settings: 10 μM ATP
# Chain of EGFR Δ746-750/C797S mutant (P00533 other isoform, or with tags, fused parts or gaps C797S/del 1-668/del 746-750 limits assumed): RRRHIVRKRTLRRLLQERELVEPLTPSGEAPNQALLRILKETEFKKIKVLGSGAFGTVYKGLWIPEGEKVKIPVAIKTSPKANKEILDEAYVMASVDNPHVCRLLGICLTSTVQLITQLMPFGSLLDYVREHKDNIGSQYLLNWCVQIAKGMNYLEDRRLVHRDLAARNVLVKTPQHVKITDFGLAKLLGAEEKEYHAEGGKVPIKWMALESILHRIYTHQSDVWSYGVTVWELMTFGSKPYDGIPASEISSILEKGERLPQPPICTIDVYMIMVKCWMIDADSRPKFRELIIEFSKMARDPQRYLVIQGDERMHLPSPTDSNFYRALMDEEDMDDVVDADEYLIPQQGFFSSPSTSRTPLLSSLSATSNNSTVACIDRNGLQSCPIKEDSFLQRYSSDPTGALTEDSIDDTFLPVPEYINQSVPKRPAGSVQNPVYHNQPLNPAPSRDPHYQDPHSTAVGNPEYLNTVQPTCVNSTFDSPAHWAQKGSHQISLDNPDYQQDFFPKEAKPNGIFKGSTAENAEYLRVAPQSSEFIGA
# Outline: as §2
# EGFR Δ746-750 mutant = EGFR Δ746-750 mutant (Homo sapiens (Human), UniProt P00533, DEL746-750); experiment: HotSpot radiometric kinase assay, EGFR Δ746-750 mutant; settings: 10 μM ATP
# Chain of EGFR Δ746-750 mutant (P00533 other isoform, or with tags, fused parts or gaps del 1-668/del 746-750 limits assumed): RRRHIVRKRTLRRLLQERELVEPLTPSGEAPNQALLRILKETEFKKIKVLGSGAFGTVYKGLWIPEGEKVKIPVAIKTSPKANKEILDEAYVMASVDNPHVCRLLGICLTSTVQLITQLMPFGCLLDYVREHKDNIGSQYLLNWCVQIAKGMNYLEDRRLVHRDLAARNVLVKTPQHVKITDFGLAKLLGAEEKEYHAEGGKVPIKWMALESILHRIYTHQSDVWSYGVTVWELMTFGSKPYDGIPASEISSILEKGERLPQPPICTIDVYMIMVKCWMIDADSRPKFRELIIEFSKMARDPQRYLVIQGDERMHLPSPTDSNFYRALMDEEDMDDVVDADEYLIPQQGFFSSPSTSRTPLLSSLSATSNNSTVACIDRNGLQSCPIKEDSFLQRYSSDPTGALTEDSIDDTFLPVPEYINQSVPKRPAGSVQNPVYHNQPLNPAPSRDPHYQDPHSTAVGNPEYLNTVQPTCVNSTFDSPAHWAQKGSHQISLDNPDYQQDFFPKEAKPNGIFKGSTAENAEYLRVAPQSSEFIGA
# Outline: as §2
# EGFR (D770_N771insNPG) = EGFR (D770_N771insNPG) (Homo sapiens (Human), UniProt P00533, INS770NPG); experiment: HotSpot radiometric kinase assay, EGFR (D770_N771insNPG); settings: 10 μM ATP, read-out: EGFR (Δ770_N771insNPG) IC50
# Chain of EGFR (D770_N771insNPG) (P00533 other isoform, or with tags, fused parts or gaps del 1-668/ins NPG behind 770 limits assumed): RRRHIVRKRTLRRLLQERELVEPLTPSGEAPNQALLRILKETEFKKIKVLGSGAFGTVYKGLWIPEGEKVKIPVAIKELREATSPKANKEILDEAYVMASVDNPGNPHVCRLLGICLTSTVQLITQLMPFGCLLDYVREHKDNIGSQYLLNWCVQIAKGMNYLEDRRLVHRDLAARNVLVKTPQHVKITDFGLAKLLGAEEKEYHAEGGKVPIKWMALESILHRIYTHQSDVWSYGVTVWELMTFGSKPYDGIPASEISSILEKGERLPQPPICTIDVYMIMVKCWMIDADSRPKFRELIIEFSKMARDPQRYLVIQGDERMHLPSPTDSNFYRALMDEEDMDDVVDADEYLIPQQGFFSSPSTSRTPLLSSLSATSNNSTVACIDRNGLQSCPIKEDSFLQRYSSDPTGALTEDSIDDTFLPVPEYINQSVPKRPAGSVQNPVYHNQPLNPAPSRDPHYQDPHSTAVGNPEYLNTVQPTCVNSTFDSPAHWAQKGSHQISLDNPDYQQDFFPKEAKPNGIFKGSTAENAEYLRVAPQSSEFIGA
# Outline: as §2
# EGFR WT = EGFR WT (Homo sapiens (Human), UniProt P00533); experiment: HotSpot radiometric kinase assay (Reaction Biology), EGFR WT; settings: 10 μM ATP
# Outline: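 IC50 values derive from curve fits of 33P incorporation measured by P81 filter binding. ATP was 10 μM final; incubation lasted 120 min at room temperature after ~20 min compound preincubation.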
# EGFR L858R mutant = EGFR L858R mutant (Homo sapiens (Human), UniProt P00533, L858R); experiment: HotSpot radiometric kinase assay, EGFR L858R mutant; settings: 10 μM ATP
# Outline: as §2
# [2] = target: EGFR L858R/T790M/C797S mutant (Homo sapiens (Human), UniProt P00533, C797S/L858R/T790M); experiment: HotSpot radiometric kinase assay, EGFR L858R/T790M/C797S mutant; settings: 10 μM ATP
# Chain of EGFR L858R/T790M/C797S mutant (P00533 25-1210 T790M/C797S/L858R): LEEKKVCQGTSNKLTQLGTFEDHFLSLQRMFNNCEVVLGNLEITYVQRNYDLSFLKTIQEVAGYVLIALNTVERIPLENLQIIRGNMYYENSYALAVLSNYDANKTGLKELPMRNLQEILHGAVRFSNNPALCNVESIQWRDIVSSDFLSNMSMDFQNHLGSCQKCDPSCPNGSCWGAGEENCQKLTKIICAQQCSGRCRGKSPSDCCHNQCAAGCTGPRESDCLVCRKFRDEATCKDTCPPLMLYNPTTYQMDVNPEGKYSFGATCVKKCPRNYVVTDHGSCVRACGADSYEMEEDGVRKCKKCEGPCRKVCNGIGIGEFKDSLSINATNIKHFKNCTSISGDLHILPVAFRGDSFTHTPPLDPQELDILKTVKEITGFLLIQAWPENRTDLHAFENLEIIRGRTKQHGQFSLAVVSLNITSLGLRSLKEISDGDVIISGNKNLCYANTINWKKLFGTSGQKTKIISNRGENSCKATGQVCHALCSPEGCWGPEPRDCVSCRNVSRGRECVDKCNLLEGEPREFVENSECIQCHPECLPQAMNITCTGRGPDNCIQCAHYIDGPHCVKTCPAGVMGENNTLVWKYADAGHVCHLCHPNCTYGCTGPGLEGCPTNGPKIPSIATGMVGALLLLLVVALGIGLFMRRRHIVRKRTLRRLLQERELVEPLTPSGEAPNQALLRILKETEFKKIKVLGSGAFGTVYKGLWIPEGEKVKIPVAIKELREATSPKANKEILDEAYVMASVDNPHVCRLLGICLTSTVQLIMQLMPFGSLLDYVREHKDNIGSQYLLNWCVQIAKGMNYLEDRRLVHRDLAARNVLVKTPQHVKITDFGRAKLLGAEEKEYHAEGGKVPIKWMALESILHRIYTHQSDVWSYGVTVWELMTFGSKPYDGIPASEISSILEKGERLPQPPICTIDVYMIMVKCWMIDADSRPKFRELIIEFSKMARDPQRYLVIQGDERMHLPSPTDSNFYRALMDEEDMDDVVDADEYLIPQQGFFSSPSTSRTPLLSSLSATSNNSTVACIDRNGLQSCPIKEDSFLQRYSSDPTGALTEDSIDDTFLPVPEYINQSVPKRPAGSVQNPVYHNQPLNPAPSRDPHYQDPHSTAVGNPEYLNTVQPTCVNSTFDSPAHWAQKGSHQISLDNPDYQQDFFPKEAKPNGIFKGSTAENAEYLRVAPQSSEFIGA
# Outline: as §2
# Chain of CLK4 (Q9HAZ1 whole entry): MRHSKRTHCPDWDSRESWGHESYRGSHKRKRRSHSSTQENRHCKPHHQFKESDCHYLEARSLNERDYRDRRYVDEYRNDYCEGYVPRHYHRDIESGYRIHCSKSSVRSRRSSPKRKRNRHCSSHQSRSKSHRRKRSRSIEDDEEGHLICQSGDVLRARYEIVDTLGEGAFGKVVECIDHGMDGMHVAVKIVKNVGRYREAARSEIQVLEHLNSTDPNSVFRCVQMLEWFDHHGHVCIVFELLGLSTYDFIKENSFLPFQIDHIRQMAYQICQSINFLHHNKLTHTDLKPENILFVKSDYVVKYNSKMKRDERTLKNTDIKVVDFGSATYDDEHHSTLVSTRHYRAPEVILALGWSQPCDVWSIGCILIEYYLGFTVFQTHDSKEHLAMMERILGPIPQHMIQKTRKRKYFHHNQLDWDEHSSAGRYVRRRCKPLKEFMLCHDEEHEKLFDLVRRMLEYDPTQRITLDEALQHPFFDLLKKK
SMILES,IC50 (CLK4) [nM],IC50 (CLK1) [nM],IC50 (CLK2) [nM],IC50 (CLK3) [nM],IC50 (ALK) [nM],IC50 (EGFR L858R/T790M mutant) [nM],IC50 [1] [nM],IC50 (EGFR Δ746-750 mutant) [nM],IC50 (EGFR (D770_N771insNPG)) [nM],IC50 (EGFR WT) [nM],IC50 (EGFR L858R mutant) [nM],IC50 [2] [nM]
"CC(C)Oc1nn(CCO)c2c1/C=C/c1n[nH]c3ccc(cc13)-c1cnn(C)c1O[C@@H](C(F)F)CN(C)C2 (single isomer, unassigned) [Ex. 275]",2.25,0.8,1.03,241,1.46,–,–,–,–,–,–,–
"CCN1Cc2c(c(OC(C)C)nn2C[C@H](C)O)/C=C/c2n[nH]c3ccc(cc23)-c2cnn(C)c2O[C@@H](C)C1 [Ex. 280, (2S)-1-{(10S,17E)-12-ethyl-8,10-dimethyl-16-[(propan-2-yl)oxy]-2,8,10,11,12,13-hexahydro-14H-3,5-ethenotripyrazolo[3,4-f:3′,4′-j:4″,3″-n][1,4]oxazacyclopentadecin-14-yl}propan-2-ol]",1.96,0.52,0.24,242,1.08,–,–,–,–,–,–,–
"CCc1nn(C)c2c1/C=C/c1n[nH]c3ccc(cc13)-c1cnn(C)c1OCCOC2 [Example 300, (17E)-16-ethyl-8,14-dimethyl-2,8,10,11,13,14-hexahydro-3,5-etheno[1,4]dioxacyclopentadecino[10,11-c:15,14-c′:6,7-c″]tripyrazole]",0.225,0.332,36.5,0.862,5.79,–,–,–,–,–,–,–
"CCN1Cc2c(c(OC)nn2[C@@H](C)CO)/C=C/c2n[nH]c3cc(F)c(cc23)-c2cnn(C)c2O[C@H](C)C1 [Example 289, (2S)-2-[(10R,17E)-12-ethyl-19-fluoro-16-methoxy-8,10-dimethyl-2,8,10,11,12,13-hexahydro-14H-3,5-ethenotripyrazolo[3,4-f:3′,4′-j:4″,3″-n][1,4]oxazacyclopentadecin-14-yl]propan-1-ol]",–,–,–,–,15.4,–,–,–,–,–,–,–
"CCc1nn(C)c2c1/C=C/c1n[nH]c3ccc(cc13)-c1cnn(C)c1O[C@@H](C)COC2 [Example 319, (10S,17E)-16-ethyl-8,10,14-trimethyl-2,8,10,11,13,14-hexahydro-3,5-etheno[1,4]dioxacyclopentadecino[10,11-c:15,14-c′:6,7-c″]tripyrazole]",–,–,–,–,5.05,24.7,425,218,1490,766,182,60.5
"CC(C)Oc1nn(CCO)c2c1/C=C/c1n[nH]c3cc(F)c(cc13)-c1cnn(C)c1O[C@@H](C)[C@H]1CCCN1C2 (single isomer, unassigned) [Example 256]",4.05,1.38,1.35,94.5,2,–,–,–,–,–,–,–
"CCNC(=O)Cn1nc(C)c2c1COCCOc1c(cnn1C)-c1ccc3[nH]nc(c3c1)/C=C/2 [Example 301, 2-[(17E)-8,16-dimethyl-2,10,11,13-tetrahydro-3,5-etheno[1,4]dioxacyclopentadecino[10,11-c:15,14-c′:6,7-c′]tripyrazol-14(8H)-yl]-N-ethylacetamide]",–,–,–,–,29,–,–,–,–,–,–,–
"Cc1onc2c1/C=C/c1n[nH]c3ccc(cc13)-c1cnn(C)c1OCCOC2 [Example 320, (17E)-8,16-dimethyl-2,8,10,11-tetrahydro-13H-3,5-ethenodipyrazolo[3′,4′:10,11;4″,3″:14,15] [1,4]dioxacyclopentadecino[6,7-c][1,2]oxazole]",0.155,0.324,69.7,0.2,32.2,–,–,–,–,–,–,–
"Cn1nc(C#N)c2c1COCCOc1c(cnn1C)-c1ccc3[nH]nc(c3c1)/C=C/2 [Example 302, (17E)-8,14-dimethyl-2,8,10,11,13,14-hexahydro-3,5-etheno[1,4]dioxacyclopentadecino[10,11-c:15,14-c′:6,7-c″]tripyrazole-16-carbonitrile]",1.33,1.19,1000,1.23,19.9,–,–,–,–,–,–,–
"Cc1noc2c1/C=C/c1n[nH]c3ccc(cc13)-c1cnn(C)c1OCCOC2 [Example 321, (17E)-8,16-dimethyl-2,10,11,13-tetrahydro-8H-3,5-ethenodipyrazolo[3′,4′:10,11;4″,3″:14,15] [1,4]dioxacyclopentadecino[7,6-d][1,2]oxazole]",0.847,1.35,418,1.92,20.8,–,–,–,–,–,–,–
"Cc1nn(C)c2c1/C=C/c1n[nH]c3ccc(cc13)-c1cnn(C)c1O[C@@H](C)CCO2 [Ex. 35, (10S,17E)-8,10,14,16-tetramethyl-2,11,12,14-tetrahydro-8H,10H-3,5-etheno[1,5]dioxacyclopentadecino[10,11-c:15,14-c′:6,7-c″ ]tripyrazole]",–,–,–,–,6.93,–,99.6,101,1040,584,135,30.9
"CCOc1nn(CCO)c2c1/C=C/c1n[nH]c3cc(F)c(cc13)-c1cnn(C)c1O[C@H](C)CN(CC)C2 [Ex. 277, 2-[(10R,17E)-16-ethoxy-12-ethyl-19-fluoro-8,10-dimethyl-2,8,10,11,12,13-hexahydro-14H-3,5-ethenotripyrazolo[3,4-f:3′,4′-j:4″,3″-n][1,4]oxazacyclopentadecin-14-yl]ethan-1-ol]",2.77,4.28,2.99,51.1,9.87,–,–,–,–,–,–,–
"Cc1snc2c1/C=C/c1n[nH]c3ccc(cc13)-c1cnn(C)c1OCCOC2 [Example 322, (17E)-8,16-dimethyl-2,8,10,11-tetrahydro-13H-3,5-ethenodipyrazolo[3′,4′:10,11;4″,3″:14,15] [1,4]dioxacyclopentadecino[6,7-c][1,2]thiazole]",0.636,1.04,34.9,0.322,59.9,–,–,–,–,–,–,–
"Cc1nn(C)c2c1/C=C/c1n[nH]c3ccc(cc13)-c1cnn(C)c1OCCOC2 [Example 303, (17E)-8,14,16-trimethyl-2,8,10,11,13,14-hexahydro-3,5-etheno[1,4]dioxacyclopentadecino[10,11-c:15,14-c′:6,7-c″]tripyrazole]",–,–,–,–,27.5,–,–,–,–,–,–,–
"Cc1nn(C)c2c1/C=C/c1n[nH]c3ccc(cc13)-c1cnn(C)c1OCCCO2 [Ex. 8, (17E)-8,14,16-trimethyl-2,11,12,14-tetrahydro-8H,10H-3,5-etheno[1,5]dioxacyclopentadecino[10,11-c:15,14-c′:6,7-c″]tripyrazole]",–,–,–,–,2.09,–,–,44.8,377,884,104,24.3
"Cc1nn(CCO)c2c1/C=C/c1n[nH]c3ccc(cc13)-c1cnn(C)c1OCCCO2 [Ex. 22, 2-[(17E)-8,16-dimethyl-2,8,11,12-tetrahydro-10H,14H-3,5-etheno[1,5]dioxacyclopentadecino[10,11-c:15,14-c′:6,7-c″]tripyrazol-14-yl]ethan-1-ol]",–,–,–,–,1.35,1.87,5.1,3.84,94.8,158,4.49,0.54
"C[C@H]1CN(C)Cc2c(c(OCC#N)nn2CCO)/C=C/c2n[nH]c3ccc(cc23)-c2cnn(C)c2O1 [Example 203, {[(10S,17E)-14-(2-hydroxyethyl)-8,10,12-trimethyl-2,10,11,12,13,14-hexahydro-8H-3,5-ethenotripyrazolo[3,4-f:3′,4′-j:4″,3″- n][1,4]oxazacyclopentadecin-16-yl]oxy}acetonitrile]",1.59,0.72,0.14,151,–,0.17,0.23,0.11,0.65,0.23,0.12,0.78
